This passage reports IC50 results from patent US20240208969A1, “SUBSTITUTED FUSED BICYCLIC COMPOUNDS AS PARP INHIBITORS AND THE USE THEREOF” (IMPACT THERAPEUTICS (SHANGHAI), INC., priority 2021, published 2024).

The IC50 is the concentration at which inhibition is half-maximal. By pIC50 is commonly meant the IC50 on a negative log10 scale, so that one unit is a factor of ten.

The target in one assay is PARP1 (Homo sapiens, UniProt P09874). Description: PARP1 chemiluminescent assay. The settings on record: recombinant PARP1 enzyme activity, chemiluminescence. It is filed as biochemical. On the procedure:
(§1) Mix the solution of recombinant poly ADP ribotransferase 1 and 2 (PARP1 and PARP2) (40 ng enzyme/well) and the compounds to be tested, respectively. And then added to a 96-well plate coated with […] mixture, incubated at room temperature for 1 h. Then add 50 μL 0.3 ng/mL Streptavidin-HRP to each well. The plates were incubated for 30 minutes at room temperature. Finally, the plates were treated with streptavidin-HRP followed by addition of the ELISA ECL substrate to produce chemiluminescence that can then be measured using a chemiluminescence reader. The inhibition rate of the compound to PARP1/2 enzyme activity was calculated according to the following formula. [formula] IC50 value is obtained by fitting the s-shaped dose response curve equation by using XL Fit software. The curve equation is Y=100/(1+10^(log C−log IC50)), C is the compound concentration. Table 1 summarizes the inhibitory effects of compounds on PARP1 and PARP2 enzyme activity (IC50), wherein +++++ indicates IC50≤1 nM; ++++ indicates 1<IC50≤10 nM; +++ indicates 10 nM<IC50≤100 nM: ++ indicates 100 nM<IC50≤1 μM; + indicates IC50>1 μM.

In the next assay the target is PARP2 (Homo sapiens, UniProt Q9UGN5). Description: PARP2 chemiluminescent assay. To be noted: recombinant PARP2 enzyme activity, chemiluminescence. It is filed as biochemical. On the procedure:
as §1

A further assay deals with MDA-MB-436 cells. The assay is described as follows: Inhibition of proliferation of human breast cancer MDA-MB-436 cell line (CCK-8, 7 days). It is filed as cell-based. To be noted: proliferation of MDA-MB-436, 7 days. The essentials: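 Cells seeded at 3000/well were treated next day with 8 serial doses (DMSO control) for 7 days at 37° C., 5% CO2, with compound medium changed on day four. CCK-8 was added for 4 hours and OD read as 450 nm minus 650 nm. IC50 came from a sigmoidal fit of survival relative to DMSO.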

The structures appear in SMILES notation. pIC50: −log10 of the molar value.

Chain of PARP2 (Q9UGN5 whole entry, species assumed): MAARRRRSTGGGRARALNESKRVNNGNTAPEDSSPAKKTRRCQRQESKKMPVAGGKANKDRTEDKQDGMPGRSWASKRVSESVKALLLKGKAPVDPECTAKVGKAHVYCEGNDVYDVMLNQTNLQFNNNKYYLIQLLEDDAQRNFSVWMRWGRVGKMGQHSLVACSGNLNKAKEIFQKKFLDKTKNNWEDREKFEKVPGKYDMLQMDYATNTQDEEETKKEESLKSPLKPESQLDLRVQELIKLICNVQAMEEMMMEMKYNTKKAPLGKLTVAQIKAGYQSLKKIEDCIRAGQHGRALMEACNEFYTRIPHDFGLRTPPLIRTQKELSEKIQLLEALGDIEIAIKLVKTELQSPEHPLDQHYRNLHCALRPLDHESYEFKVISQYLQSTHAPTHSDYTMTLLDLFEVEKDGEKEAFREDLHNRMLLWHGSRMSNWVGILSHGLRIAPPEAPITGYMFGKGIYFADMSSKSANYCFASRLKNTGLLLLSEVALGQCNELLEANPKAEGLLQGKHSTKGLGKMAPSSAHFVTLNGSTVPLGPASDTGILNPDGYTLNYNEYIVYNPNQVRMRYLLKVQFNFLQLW
Chain of PARP1 (P09874 whole entry): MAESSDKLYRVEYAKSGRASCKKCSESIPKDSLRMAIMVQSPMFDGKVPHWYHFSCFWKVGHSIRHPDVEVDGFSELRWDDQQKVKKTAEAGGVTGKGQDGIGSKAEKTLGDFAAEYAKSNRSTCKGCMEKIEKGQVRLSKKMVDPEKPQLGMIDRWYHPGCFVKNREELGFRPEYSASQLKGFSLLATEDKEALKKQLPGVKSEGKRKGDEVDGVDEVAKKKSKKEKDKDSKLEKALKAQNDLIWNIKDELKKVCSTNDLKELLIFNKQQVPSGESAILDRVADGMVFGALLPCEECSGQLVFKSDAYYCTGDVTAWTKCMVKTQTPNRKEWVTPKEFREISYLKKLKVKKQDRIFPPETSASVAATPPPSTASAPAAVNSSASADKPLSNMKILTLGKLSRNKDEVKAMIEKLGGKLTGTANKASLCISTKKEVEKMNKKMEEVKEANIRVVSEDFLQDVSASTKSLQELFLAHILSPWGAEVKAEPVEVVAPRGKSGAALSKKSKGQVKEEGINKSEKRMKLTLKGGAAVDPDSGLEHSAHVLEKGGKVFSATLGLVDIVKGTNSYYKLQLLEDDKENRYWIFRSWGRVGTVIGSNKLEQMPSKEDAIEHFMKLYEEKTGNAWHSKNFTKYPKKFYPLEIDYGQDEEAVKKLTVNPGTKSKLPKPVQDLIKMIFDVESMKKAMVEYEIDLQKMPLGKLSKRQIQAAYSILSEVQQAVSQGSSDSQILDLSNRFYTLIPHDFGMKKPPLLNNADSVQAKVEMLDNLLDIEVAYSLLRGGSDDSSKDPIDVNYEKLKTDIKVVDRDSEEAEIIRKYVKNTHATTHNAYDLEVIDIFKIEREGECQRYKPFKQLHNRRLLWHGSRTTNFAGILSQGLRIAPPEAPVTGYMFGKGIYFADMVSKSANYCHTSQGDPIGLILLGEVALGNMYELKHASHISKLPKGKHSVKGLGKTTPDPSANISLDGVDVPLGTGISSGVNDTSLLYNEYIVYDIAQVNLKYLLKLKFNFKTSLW

Take `CCN1Cc2ccc(CN3CCN(c4ccc(C(=O)NC)nc4F)CC3)cc2NC1=O` [Example 114, 5-(4-((3-ethyl-2-oxo-1,2,3,4-tetrahydroquinazolin-7-yl)methyl)piperazin-1-yl)-6-fluoro-N-methylpicolinamide]: the figures for the 50% inhibitory concentration (IC50) at PARP1 and on PARP2 were 1 to 10 nM and greater than 1000 nM, respectively. For the same compound, the pIC50 in the assay on MDA-MB-436 cells (Homo sapiens, 168 h) was 7.00 to 8.00.

As for `CCN1Cc2ccc(CN3CCN(c4ccc(C(=O)NC)nc4Cl)CC3)cc2NC1=O` [Example 115], the IC50 at PARP1 is 1 to 10 nM; at PARP2, greater than 1000 nM. This compound had a pIC50 in the assay on MDA-MB-436 cells (Homo sapiens, 168 h) of 8.00 to 9.00.

`CCN1Cc2ccc(CN3CCN(c4ccc(C(=O)NC)nc4C)CC3)cc2NC1=O` [Example 116]: the results for the IC50 at PARP1 and at PARP2 were 1 to 10 nM and greater than 1000 nM, respectively. The same compound gave a pIC50 in the assay with MDA-MB-436 cells (Homo sapiens, 168 h) of 7.00 to 8.00.

`CCNC(=O)c1ccc(N2CCN(Cc3ccc4c(c3)NC(=O)N(CC)C4)CC2)c(C)n1` [Example 117, 5-(4-((3-ethyl-2-oxo-1,2,3,4-tetrahydroquinazolin-7-yl)methyl)piperazin-1-yl)-6-methyl-N-ethylpicolinamide]: the IC50 at PARP1 was 1 to 10 nM; on PARP2, greater than 1000 nM. The pIC50 in the assay on MDA-MB-436 cells (Homo sapiens, 168 h) was 8.00 to 9.00.

As to `CCN1Cc2c(F)cc(CN3CCN(c4ccc(C(=O)NC)nc4C)CC3)cc2NC1=O` [Example 119, 5-(4-((3-ethyl-5-fluoro-2-oxo-1,2,3,4-tetrahydroquinazolin-7-yl)methyl)piperazin-1-yl)-N,6-dimethylpicolinamide], the IC50 at PARP1 is 1 to 10 nM; at PARP2, greater than 1000 nM. Besides, in the assay with MDA-MB-436 cells (Homo sapiens, 168 h), the negative logarithm of the IC50 (pIC50) is 8.00 to 9.00.

As for `CCn1c(=O)[nH]c2cc(CN3CCN(c4ccc(C(=O)NC5CC5)nc4F)CC3)ccc2c1=O` [Example 135, N-cyclopropyl-5-(4-((3-ethyl-2,4-dioxo-1,2,3,4-tetrahydroquinazolin-7-yl)methyl)piperazin-1-yl)-6-fluoropicolinamide], the results for the IC50 on PARP1 and on PARP2 were 1 to 10 nM and 100 to 1000 nM, respectively. The pIC50 in the assay on MDA-MB-436 cells (Homo sapiens, 168 h) was 8.00 to 9.00.

For the compound `O=C(c1cc(Cn2c(=O)[nH]c(=O)c3c(F)cccc32)ccc1F)N1CCN(c2ncccn2)CC1` [Senaparib, reference compound], the IC50 at PARP1 and on PARP2 was 1 to 10 nM in each case. In addition, the pIC50 in the assay with MDA-MB-436 cells was 8.00 to 9.00.
